In US11725000B2, “Apoptosis inhibitors” (National Institute of Biological Sciences, Beijing, priority 2017, dated 2023):

Test system: U2OS_Bim cells
Assay: Apoptosis inhibition assay (Bim-induced apoptosis, cell viability by ATP level)
Assay type: cell-based
Settings: U2OS_Bim cells; means of duplicates; numbering of Tables 4a/4b; read-out: EC50
Method in brief: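 Apoptosis was triggered by doxycycline (0.1 μg/mL) induction of Bim, one hour after compound addition to U2OS_Bim cells. Survival was measured after 24 h from cellular ATP (CellTiter-Glo), relative to DMSO, with zVAD at 20 μM as rescue control. Data are duplicate means, some estimated from preliminary results.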

| EC50 | Compound |
| --- | --- |
| 1 to 1000 nM | CS(=O)(=O)c1nc(-c2ccc(=O)n(Cc3ccc4c(c3)OCO4)c2)cc(C(F)(F)F)n1 [Compound 136, 1-(benzo[d][1,3]dioxol-5-ylmethyl)-5-(2-(methylsulfonyl)-6-(trifluoromethyl)pyrimidin-4-yl)pyridin-2 (1H)-one] |
| 1 to 1000 nM | CS(=O)(=O)c1nc(-c2ccc(=O)n(Cc3ccc4c(c3Br)OCO4)c2)cc(C(F)(F)F)n1 [Compound 137, 1-((4-bromobenzo[d][1,3]dioxol-5-yl)methyl)-5-(2-(methylsulfonyl)-6-(trifluoromethyl)pyrimidin-4-yl)pyridin-2 (1H)-one] |
| 1 to 1000 nM | C[S+]([O-])c1nc(-c2ccc(=O)n(Cc3ccc4c(c3Br)OCO4)c2)cc(C(F)(F)F)n1 (stereo not drawn) [Compound 138, 1-((4-bromobenzo[d][1,3]dioxol-5-yl)methyl)-5-(2-(methylsulfinyl)-6-(trifluoromethyl)pyrimidin-4-yl)pyridin-2 (1H)-one] |
| 1000 to 10000 nM | COc1ccc(Cn2cc(-c3cc(-n4cccn4)nc(S(C)(=O)=O)n3)ccc2=O)cc1OC [Compound 139, 1-(3,4-dimethoxybenzyl)-5-(2-(methylsulfonyl)-6-(1H-pyrazol-1-yl)pyrimidin-4-yl)pyridin-2 (1H)-one] |
| 1 to 1000 nM | COc1ccc(Cn2cc(-c3cc(C(F)(F)F)nc(S(=O)(=O)Cc4ccc(-c5ccccc5)cc4)n3)ccc2=O)cc1OC [Compound 140, 5-(2-(([1,1′-biphenyl]-4-ylmethyl)sulfonyl)-6-(trifluoromethyl)pyrimidin-4-yl)-1-(3,4-dimethoxybenzyl)pyridin-2 (1H)-one] |
| 1 to 1000 nM | C#CCCS(=O)(=O)c1nc(-c2ccc(=O)n(Cc3ccc(OC)c(OC)c3)c2)cc(C(F)(F)F)n1 [Compound 141, 5-(2-(but-3-yn-1-ylsulfonyl)-6-(trifluoromethyl)pyrimidin-4-yl)-1-(3,4-dimethoxybenzyl)pyridin-2 (1H)-one] |
| 1000 to 10000 nM | C=CS(=O)(=O)c1nc(-c2ccc(=O)n(Cc3ccc(OC)c(OC)c3)c2)cc(C(F)(F)F)n1 [Compound 142, 1-(3,4-dimethoxybenzyl)-5-(6-(trifluoromethyl)-2-(vinylsulfonyl)pyrimidin-4-yl)pyridin-2 (1H)-one] |
| 1 to 1000 nM | COCCS(=O)(=O)c1nc(-c2ccc(=O)n(Cc3ccc(OC)c(OC)c3)c2)cc(C(F)(F)F)n1 [Compound 143] |
| 1 to 1000 nM | COCCCS(=O)(=O)c1nc(-c2ccc(=O)n(Cc3ccc(OC)c(OC)c3)c2)cc(C(F)(F)F)n1 [Compound 144, 1-(3,4-dimethoxybenzyl)-5-(2-((3-methoxypropyl)sulfonyl)-6-(trifluoromethyl)pyrimidin-4-yl)pyridin-2 (1H)-one] |
| 1 to 1000 nM | COCCOCCS(=O)(=O)c1nc(-c2ccc(=O)n(Cc3ccc(OC)c(OC)c3)c2)cc(C(F)(F)F)n1 [Compound 145] |
| 1 to 1000 nM | CCCCCCCS(=O)(=O)c1nc(-c2ccc(=O)n(Cc3ccc(OC)c(OC)c3)c2)cc(C(F)(F)F)n1 [Compound 146, 1-(3,4-dimethoxybenzyl)-5-(2-(heptylsulfonyl)-6-(trifluoromethyl)pyrimidin-4-yl)pyridin-2 (1H)-one] |
| 1 to 1000 nM | CCCCCS(=O)(=O)c1nc(-c2ccc(=O)n(Cc3ccc(OC)c(OC)c3)c2)cc(C(F)(F)F)n1 [Compound 147, 1-(3,4-dimethoxybenzyl)-5-(2-(pentylsulfonyl)-6-(trifluoromethyl)pyrimidin-4-yl)pyridin-2 (1H)-one] |
| 1 to 1000 nM | COc1ccc(Cn2cc(-c3cc(C(F)(F)F)nc(S(=O)(=O)CCC(=O)N(C)C)n3)ccc2=O)cc1OC [Compound 149, 3-((4-(1-(3,4-dimethoxybenzyl)-6-oxo-1,6-dihydropyridin-3-yl)-6-(trifluoromethyl)pyrimidin-2-yl)sulfonyl)-N,N-dimethylpropanamide] |
| 1 to 1000 nM | COc1ccc(Cn2cc(-c3cc(C(F)(F)F)nc(S(=O)(=O)CCC(=O)N4CCCC4)n3)ccc2=O)cc1OC [Compound 150, 1-(3,4-dimethoxybenzyl)-5-(2-((3-oxo-3-(pyrrolidin-1-yl)propyl)sulfonyl)-6-(trifluoromethyl)pyrimidin-4-yl)pyridin-2 (1H)-one] |
| 1 to 1000 nM | COc1ccc(Cn2cc(-c3cc(C(F)(F)F)nc(S(=O)(=O)CCCC(=O)N(C)C)n3)ccc2=O)cc1OC [Compound 151, 4-((4-(1-(3,4-dimethoxybenzyl)-6-oxo-1,6-dihydropyridin-3-yl)-6-(trifluoromethyl)pyrimidin-2-yl)sulfonyl)-N,N-dimethylbutanamide] |
| 1 to 1000 nM | COc1ccc(Cn2cc(-c3cc(C(F)(F)F)nc(S(=O)(=O)CCCC(=O)N4CCCC4)n3)ccc2=O)cc1OC [Compound 152, 1-(3,4-dimethoxybenzyl)-5-(2-((4-oxo-4-(pyrrolidin-1-yl)butyl)sulfonyl)-6-(trifluoromethyl)pyrimidin-4-yl)pyridin-2 (1H)-one] |
| 1 to 1000 nM | COc1ccc(Cn2cc(-c3cc(C(F)(F)F)nc(S(=O)(=O)CCC(=O)N4CCCCC4)n3)ccc2=O)cc1OC [Compound 153, 1-(3,4-dimethoxybenzyl)-5-(2-((3-oxo-3-(piperidin-1-yl)propyl)sulfonyl)-6-(trifluoromethyl)pyrimidin-4-yl)pyridin-2 (1H)-one] |

| EC50 | Compound |
| --- | --- |
| 1 to 1000 nM | COc1cc(Cl)c(Cn2cc(-c3cc(C(F)(F)F)nc(S(=O)(=O)CCC(=O)N4CCCCC4)n3)ccc2=O)cc1OC [Compound 154, 1-(2-chloro-4,5-dimethoxybenzyl)-5-(2-((3-oxo-3-(piperidin-1-yl)propyl)sulfonyl)-6-(trifluoromethyl)pyrimidin-4-yl)pyridin-2 (1H)-one] |
| 1 to 1000 nM | COc1ccc(Cn2cc(-c3cc(C(F)(F)F)nc(S(=O)(=O)CCCC(=O)N4CCCCC4)n3)ccc2=O)cc1OC [Compound 155, 1-(3,4-dimethoxybenzyl)-5-(2-((4-oxo-4-(piperidin-1-yl)butyl)sulfonyl)-6-(trifluoromethyl)pyrimidin-4-yl)pyridin-2 (1H)-one] |
| 1 to 1000 nM | COc1ccc(Cn2cc(-c3cc(C(F)(F)F)nc(S(=O)(=O)CCCC(=O)N4CCOCC4)n3)ccc2=O)cc1OC [Compound 156, 1-(3,4-dimethoxybenzyl)-5-(2-((4-morpholino-4-oxobutyl)sulfonyl)-6-(trifluoromethyl)pyrimidin-4-yl)pyridin-2 (1H)-one] |
| 1 to 1000 nM | COc1cc(Cl)c(Cn2cc(-c3cc(C(F)(F)F)nc(S(=O)(=O)CCCC(=O)N4CCOCC4)n3)ccc2=O)cc1OC [Compound 157, 1-(2-chloro-4,5-dimethoxybenzyl)-5-(2-((4-morpholino-4-oxobutyl)sulfonyl)-6-(trifluoromethyl)pyrimidin-4-yl)pyridin-2 (1H)-one] |
| < 100000 nM | COc1ccc(Cn2cc(-c3cc(C(F)(F)F)nc(S(=O)(=O)CCCC(N)=O)n3)ccc2=O)cc1OC [Compound 158, 4-((4-(1-(3,4-dimethoxybenzyl)-6-oxo-1,6-dihydropyridin-3-yl)-6-(trifluoromethyl)pyrimidin-2-yl)sulfonyl)butanamide] |
| < 100000 nM | COc1ccc(Cn2cc(-c3cc(C(F)(F)F)nc([S+]([O-])CCCC(N)=O)n3)ccc2=O)cc1OC (stereo not drawn) [Compound 159, 4-((4-(1-(3,4-dimethoxybenzyl)-6-oxo-1,6-dihydropyridin-3-yl)-6-(trifluoromethyl)pyrimidin-2-yl)sulfinyl)butanamide] |
| 1 to 1000 nM | COc1ccc(Cn2cc(-c3cc(C(F)F)nc(S(C)(=O)=O)n3)ccc2=O)cc1OC [Compound 160, 5-(6-(difluoromethyl)-2-(methylsulfonyl)pyrimidin-4-yl)-1-(3,4-dimethoxybenzyl)pyridin-2 (1H)-one] |
| 1 to 1000 nM | COc1ccc(Cn2cc(-c3cc(CF)nc(S(C)(=O)=O)n3)ccc2=O)cc1OC [Compound 161, 5-(6-(fluoromethyl)-2-(methylsulfonyl)pyrimidin-4-yl)-1-(3,4-dimethoxybenzyl)pyridin-2 (1H)-one] |
| 1 to 1000 nM | COc1ccc(Cn2cc(-c3nc(S(C)(=O)=O)nc(C(F)(F)F)c3Cl)ccc2=O)cc1OC [Compound 162, 5-(5-chloro-2-(methylsulfonyl)-6-(trifluoromethyl)pyrimidin-4-yl)-1-(3,4-dimethoxybenzyl)pyridin-2 (1H)-one] |
| 1 to 1000 nM | COc1ccc(Cn2cc(-c3cc(C(C)=O)nc(S(C)(=O)=O)n3)ccc2=O)cc1OC [Compound 163, 5-(6-acetyl-2-(methylsulfonyl)pyrimidin-4-yl)-1-(3,4-dimethoxybenzyl)pyridin-2 (1H)-one] |
| 1 to 1000 nM | COc1ccc(Cn2cc(-c3cc(C(C)(F)F)nc(S(C)(=O)=O)n3)ccc2=O)cc1OC [Compound 164, 5-(6-(1,1-difluoroethyl)-2-(methylsulfonyl)pyrimidin-4-yl)-1-(3,4-dimethoxybenzyl)pyridin-2 (1H)-one] |
| 1 to 1000 nM | COc1ccc(Cn2cc(-c3cc(C(F)F)nc(S(C)(=O)=O)n3)cc(F)c2=O)cc1OC [Compound 165, 5-(6-(difluoromethyl)-2-(methylsulfonyl)pyrimidin-4-yl)-1-(3,4-dimethoxybenzyl)-3-fluoropyridin-2 (1H)-one] |
| 1000 to 10000 nM | COc1ccc(Cn2cc(-c3cc(C)nc(S(=O)(=O)CC(F)(F)F)n3)ccc2=O)cc1OC [Compound 166, 1-(3,4-dimethoxybenzyl)-5-(6-methyl-2-((2,2,2-trifluoroethyl)sulfonyl)pyrimidin-4-yl)pyridin-2 (1H)-one] |
| 1 to 1000 nM | COc1ccc(Cn2cc(-c3cc(C(F)F)nc(S(C)(=O)=O)n3)ccc2=O)cc1F [Compound 167, 5-(6-(difluoromethyl)-2-(methylsulfonyl)pyrimidin-4-yl)-1-(3-fluoro-4-methoxybenzyl)pyridin-2 (11H)-one] |
| 1 to 1000 nM | COc1ccc(Cn2cc(-c3cc(C(F)F)nc([S+](C)[O-])n3)ccc2=O)cc1F (stereo not drawn) [Compound 168, 5-(6-(difluoromethyl)-2-(methylsulfinyl)pyrimidin-4-yl)-1-(3-fluoro-4-methoxybenzyl)pyridin-2 (1H)-one] |
| 1 to 1000 nM | COc1ccc(Cn2cc(-c3cc(C(F)F)nc(S(C)(=O)=O)n3)ccc2=O)cc1C(F)(F)F [Compound 169, 5-(6-(difluoromethyl)-2-(methylsulfonyl)pyrimidin-4-yl)-1-(4-methoxy-3-(trifluoromethyl)benzyl)pyridin-2 (1H)-one] |
